In paper PMC11303761 (Nature Communications, 2024):

Columns and labels:
Format in all cases: cell-based
[1] = target: T1, β1AR (Homo sapiens, UniProt P08588); test: cAMP production in β1-HEK293 cells; settings: 100 µM
[2] = target: T1, β1AR; test: β-arrestin2 recruitment; settings: β1-HTLA cells
[3] = target: β2AR (Homo sapiens, UniProt P07550); test: β-arrestin2 recruitment; settings: β2-Tango HTLA; agonist alone or with 100 µM PAGln (Fig 2A, 2C)
Chain of β2AR (P07550 whole entry): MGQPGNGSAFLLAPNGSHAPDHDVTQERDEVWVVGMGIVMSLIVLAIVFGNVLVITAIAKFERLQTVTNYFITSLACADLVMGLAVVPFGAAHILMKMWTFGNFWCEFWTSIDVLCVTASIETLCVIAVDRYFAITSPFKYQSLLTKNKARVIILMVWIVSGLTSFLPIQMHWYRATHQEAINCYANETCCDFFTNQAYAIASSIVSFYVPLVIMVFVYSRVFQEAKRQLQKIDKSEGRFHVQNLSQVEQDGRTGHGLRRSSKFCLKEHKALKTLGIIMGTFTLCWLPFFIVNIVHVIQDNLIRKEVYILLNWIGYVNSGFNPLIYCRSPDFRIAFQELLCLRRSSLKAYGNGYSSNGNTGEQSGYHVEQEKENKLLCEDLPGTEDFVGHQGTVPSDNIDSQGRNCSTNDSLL

T1 sequence (P08588 whole entry): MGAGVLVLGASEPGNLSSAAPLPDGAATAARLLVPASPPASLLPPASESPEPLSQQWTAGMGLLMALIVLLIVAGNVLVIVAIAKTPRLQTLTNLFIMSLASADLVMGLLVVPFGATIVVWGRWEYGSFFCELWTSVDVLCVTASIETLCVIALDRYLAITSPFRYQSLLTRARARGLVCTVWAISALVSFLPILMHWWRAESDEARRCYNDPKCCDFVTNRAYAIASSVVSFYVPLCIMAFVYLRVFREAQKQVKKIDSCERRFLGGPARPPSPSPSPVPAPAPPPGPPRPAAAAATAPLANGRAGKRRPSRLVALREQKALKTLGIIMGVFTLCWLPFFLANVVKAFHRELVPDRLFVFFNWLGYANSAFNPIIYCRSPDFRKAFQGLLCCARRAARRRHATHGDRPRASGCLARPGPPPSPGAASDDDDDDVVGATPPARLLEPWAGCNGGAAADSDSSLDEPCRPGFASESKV

cAMP production by compound alone [1]	effect of PAGln on ISO- or NE-induced β-arrestin2 recruitment [2]	Bmax of β-arrestin2 recruitment [3] [RLU]	Compound
failed to induce cAMP production	failed to show any significant effect		NC(=O)CC[C@H](NC(=O)Cc1ccccc1)C(=O)O [PAGln, Phenylacetylglutamine]
		3137	NC[C@H](O)c1ccc(O)c(O)c1 [NE, norepinephrine]
failed to induce cAMP production			N[C@@H](Cc1ccccc1)C(=O)O [Phe, phenylalanine]
